Experiments:
[1] = tested on: Human non-small cell lung cancer NCI-H460 cells; experiment: Inhibitory effect on growth of PTX-resistant tumor cell line, parent line (in vitro); type: cell-based; conditions: 96 hours culture, WST-8
Procedure: Each compound of the present invention was studied for its effect on the growth of a tumor cell line having a PTX resistance mechanism different from that attributed to the high expression of P-glycoprotein. Human non-small cell lung cancer NCI-H460 cells were exposed to 1 nM paclitaxel (PTX) and 10 μM verapamil at the same time. Only the PTX concentration was increased to 2, 3, 4, 5, and 7 nM in order over approximately 6 months to establish PTX-resistant H460/PV2-7 cells (PV2-7). […] As for the PTX resistance mechanism different from that attributed to the high expression of P-glycoprotein, an isotype called Class III β-tubulin (TUBB3), which is one isotype of […], has been reported to be highly expressed in PTX-resistant established lines in vitro or in clinical samples from patients having resistance to PTX therapy.
The PV2-7 cells and the parent line NCI-H460 cells were suspended in a medium and inoculated at a cell density of 1000 cells/50 μL/well to a 96-well plate. After overnight culture, each compound diluted 2-fold (final concentration) was added thereto at a concentration of 50 μL/well, and the cells were cultured for 96 hours. After the completion of culture, WST-8 (Seikagaku Corp.) was added thereto at a concentration of 10 μL/well, and the cells were cultured at 37° C. for approximately 1 hour under 5% CO2 conditions, followed by measurement of absorbance at 450 nm.

[2] = tested on: PV2-7 xenograft tumor; experiment: Antitumor effect on growth of PV2-7 xenograft tumor (in vivo); design: species or system BALB/c nude mice; conditions: tail vein, once a week, three times in total (Days 1, 8, and 15); FIG. 5
Procedure: The mice were further raised for approximately 1 week to 10 days and divided into groups (4 or 5 mice per group) having equal estimated tumor volumes at the point in time when the tumor size reached approximately 100 to 200 mm^3 (Day 1). Each administration sample was administered at a dose of 10 mL/kg into the tail vein of the mice. In an administration schedule, each sample was administered once a week, three times in total (Days 1, 8, and 15).

[3] = tested on: multidrug-resistant line MES-SA/Dx5 cells; experiment: Inhibitory effect on growth of multidrug-resistant cell line (in vitro); type: cell-based, human
Description: (§1) Each compound of the present invention was studied for its effect on the growth of a multidrug-resistant cell line. A drug efflux pump called P-glycoprotein is well known to be involved in the drug resistance mechanism of the multidrug-resistant line MES-SA/Dx5 used in this experiment. Accordingly, in this experiment, paclitaxel and vincristine, which are proven substrates of P-glycoprotein, were used as control drugs. Human uterus cancer MES-SA cells and their multidrug-resistant line MES-SA/Dx5 cells were suspended in a medium and inoculated at a cell density of 2000 cells/50 μL/well to a 96-well plate. After overnight culture, each test sample diluted with a medium was added thereto at a concentration of 50 μL/well, and the cells were further cultured for 48 hours. After the completion of culture, WST-8 was added thereto at a concentration of 10 μL/well, and the cells were cultured at 37° C. for approximately 1 hour under 5% CO2 conditions, followed by measurement of absorbance at a wavelength of 450 nm. […] The resistance rate was calculated according to the following expression:
(§2) Resistance rate=IC50 value (MES-SA/Dx5)/IC50 value (MES-SA)

[4] = tested on: Human uterus cancer MES-SA cells; experiment: Inhibitory effect on growth of multidrug-resistant cell line, parent line (in vitro); type: cell-based; conditions: 48 hours culture, WST-8
Description: as §1, §2

## CC(=O)O[C@H]1C(=O)[C@@]2(C)[C@H]([C@H](OC(=O)c3ccccc3)[C@]3(O)C[C@H](OC(=O)[C@H](O)[C@@H](NC(=O)c4ccccc4)c4ccccc4)C(C)=C1C3(C)C)[C@]1(OC(C)=O)CO[C@@H]1C[C@@H]2O [Paclitaxel, paclitaxel, reference compound]
[1]
  IC50: 3.5 nM
[2]
  antitumor effect on PV2-7 cell-transplanted mice: hardly effective
[3]; Homo sapiens, MES-SA/Dx5 cells, 48 hours culture, WST-8
  IC50: 3700 nM
[3]; IC50 value (MES-SA/Dx5)/IC50 value (MES-SA)
  Resistance rate: 243.3
[4]
  IC50: 15.2 nM

Reference: patent US20140343017A1, “PYRROLE COMPOUND” (Kabushiki Kaisha Yakult Honsha, priority 2012, published 2014)
